What is called IC50 is the concentration at which inhibition is half-maximal.

Several values for one entry are separate records, joined by “and”; a condition that tells them apart may be missing. Identical values can stand only once.

IC50 data for five compounds are collected here from ChEMBL document CHEMBL1122740, “Bicyclic lactam inhibitors of angiotensin converting enzyme” (J Med Chem, 1984).

The target of the test is T1, Angiotensin-converting enzyme (Oryctolagus cuniculus, UniProt P12822).
T1 sequence (P12822 whole entry): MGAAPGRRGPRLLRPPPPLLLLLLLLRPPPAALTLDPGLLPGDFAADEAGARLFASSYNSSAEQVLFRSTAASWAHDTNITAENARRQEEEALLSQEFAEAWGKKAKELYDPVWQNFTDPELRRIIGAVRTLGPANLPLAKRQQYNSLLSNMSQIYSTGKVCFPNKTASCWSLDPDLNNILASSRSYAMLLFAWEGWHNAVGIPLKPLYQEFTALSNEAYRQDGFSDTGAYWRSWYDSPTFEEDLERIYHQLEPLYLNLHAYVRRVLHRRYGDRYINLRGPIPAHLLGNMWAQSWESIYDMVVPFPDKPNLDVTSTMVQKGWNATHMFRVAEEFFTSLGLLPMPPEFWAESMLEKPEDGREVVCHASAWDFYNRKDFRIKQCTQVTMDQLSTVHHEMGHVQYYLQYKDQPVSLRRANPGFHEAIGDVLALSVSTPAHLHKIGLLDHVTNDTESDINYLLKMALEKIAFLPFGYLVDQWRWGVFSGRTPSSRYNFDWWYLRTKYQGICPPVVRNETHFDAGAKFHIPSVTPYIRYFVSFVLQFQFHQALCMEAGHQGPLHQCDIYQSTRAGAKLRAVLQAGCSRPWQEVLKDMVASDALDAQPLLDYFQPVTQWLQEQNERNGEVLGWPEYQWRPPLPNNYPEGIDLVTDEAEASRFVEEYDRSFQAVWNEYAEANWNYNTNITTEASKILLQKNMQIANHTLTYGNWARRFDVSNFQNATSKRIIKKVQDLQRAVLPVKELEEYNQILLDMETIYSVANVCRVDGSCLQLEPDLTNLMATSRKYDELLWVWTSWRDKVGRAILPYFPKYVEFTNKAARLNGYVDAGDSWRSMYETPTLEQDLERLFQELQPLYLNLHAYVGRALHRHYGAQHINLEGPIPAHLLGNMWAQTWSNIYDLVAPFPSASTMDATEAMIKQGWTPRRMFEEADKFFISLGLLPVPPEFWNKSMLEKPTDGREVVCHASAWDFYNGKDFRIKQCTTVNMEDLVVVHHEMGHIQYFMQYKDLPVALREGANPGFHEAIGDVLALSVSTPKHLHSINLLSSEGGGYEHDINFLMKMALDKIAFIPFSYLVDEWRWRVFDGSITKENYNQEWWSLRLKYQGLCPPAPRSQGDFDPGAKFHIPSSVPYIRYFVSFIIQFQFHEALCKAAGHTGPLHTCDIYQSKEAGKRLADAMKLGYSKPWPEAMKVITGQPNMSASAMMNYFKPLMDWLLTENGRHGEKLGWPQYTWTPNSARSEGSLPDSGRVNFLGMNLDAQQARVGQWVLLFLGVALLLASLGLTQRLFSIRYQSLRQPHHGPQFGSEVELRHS
Kind of test: Ability to inhibit Angiotensin I converting enzyme was determined.
As for `O=C(O)CN1CCCC(CS)C1=O` (stereo not given), the IC50 is 1500 nM and 3400 nM.
`O=C(O)CN1CCCCC(CS)C1=O` (stereo not given) had an IC50 of 170 nM.
Then `O=C(O)CN1C(=O)C(CS)CCCc2ccccc21` (stereo not given), with 4 nM; and `CC(C(=O)O)N1CCCCCC(CS)C1=O` (stereo not given), with 53 nM; and `O=C(O)CN1C(=O)C(CS)CCc2ccccc21` (stereo not given), with 9 nM.
